Results on one compound are retold here after PMC3454376, “Salidroside Improves Behavioral and Histological Outcomes and Reduces Apoptosis via PI3K/Akt Signaling after Experimental Traumatic Brain Injury” (PLoS ONE, 2012).

Experiment [1] relates to mice subjected to controlled cortical impact injury. Description: Residual cerebral tissue ratio, cresyl violet staining. The following applies: day 28; for preservation of brain tissue (ipsilateral/contralateral hemisphere volume): vehicle 76.4±3.3%, P<0.05. It counts as in vivo. As for the experimental part:
(§1) All animal procedures were approved by the Animal Research Committee at Cheng Hsin General Hospital (Animal permit number CHIACUC 101–08), and all procedures complied with the Guide for the Care and Use of Laboratory Animals published by the US National Institutes of Health (NIH Publication No. 85–23, revised 1996). Animals were housed under a 12-h light/dark cycle and at constant temperature (21–25°C) and humidity (45–50%). They were allowed free access to pellet chow and water. TBI in mice was induced by a CCI injury model as previously described. Briefly, 8-week-old male C57BL/6 mice (weighing 22–25 g) were anesthetized through the use of intraperitoneal injection of sodium pentobarbital (65 mg/kg; Rhone Merieux, Harlow, UK) and placed in a stereotaxic frame. A 5 mm craniotomy was performed over the right parietal cortex, centered on the coronal suture and 0.1 mm lateral to the sagittal suture, and injury to dura was avoided. Injury was induced using a pneumatic piston with a rounded metal tip (2.5 mm diameter) that was angled 22.5° to the vertical so that the tip was perpendicular with the brain surface at the center of the craniotomy. The impact, with a velocity of 4 ms and a deformation depth of 2 mm below the dura, was applied. The bone flap was immediately replaced and sealed, and the scalp was sutured. Body temperature was monitored throughout the surgery by a rectal probe; temperature was maintained at 37.0±0.5°C using a heated pad. Mice were placed in a heated cage to maintain body temperature, while recovering from anesthesia. Sham-operated mice underwent the same procedure as injured mice, but without CCI.
Mice were anesthetized and positioned in a stereotaxic frame. LY294002 (200 nM in 0.5 µL of saline) or equal amount of physiological saline was intracerebroventricularly (icv) injected at 30 min before CCI as previously described. A 1 mm cranial burr hole was drilled into the skull. A 30-gauge needle on a Hamilton syringe was implanted into the lateral ventricle using stereotactic coordinates: 1.5 mm posterior to bregma and 1.0 mm right lateral to the midline, 2 mm in depth. LY294002 or saline was infused into the brain at a rate of 0.05 µL/min over 10 min with an infusion pump (KDS 310, KD Scientific Inc., Holliston, MA, USA), and the needle was left in place for an additional 20 min to prevent reflux. After the needle was removed, CCI procedure was conducted immediately. Sham-operated mice were infused icv with saline, but were not subjected to CCI.
(§2) Three sets of experiments were performed. […] To determine the optimal dose of salidroside, a pilot study was performed using 2 different doses (20 and 50 mg/kg) administered 10 min after injury, and neurological deficits and tissue damage were evaluated as the main outcomes. […]

The test system is the same in experiment [2]. The experiment in a line: Rotarod motor test after CCI. It counts as in vivo. As for the experimental part: as §1, with “Injury was induced using a pneumatic piston with a rounded metal tip (2.5 mm diameter) that was angled 22.5° to the vertical so that the tip was perpendicular with the brain surface at the center of the craniotomy. The impact, with a velocity of 4 ms and a deformation depth of 2 mm below the dura, was applied. The bone flap was immediately replaced and sealed, and the scalp was sutured.” left out, “Mice were placed in a heated cage to maintain body temperature, while recovering from anesthesia. Sham-operated mice underwent the same procedure as injured mice, but without CCI.” left out
as §2
Background: In the rotarod test animals must keep their balance on a rotating rod.

For the compound `OC[C@H]1O[C@@H](OCCc2ccc(O)cc2)[C@H](O)[C@@H](O)[C@@H]1O` [SALD, salidroside], the “preservation of brain tissue (ipsilateral/contralateral hemisphere volume)” value in experiment [1] (20 mg/kg ip 10 min after CCI) is 81.9±2.6%; in experiment [1] (50 mg/kg ip 10 min after CCI), 80.7±2.8%. The “residual cerebral tissue ratio” value in experiment [1] (icv saline 30 min before CCI, then SALD 20 mg/kg ip (S20S group)) came to 80.5±5.8%. For the same compound, the “rotarod performance versus vehicle group” value in experiment [2] (20 mg/kg ip 10 min after CCI, whole observation period (28 days), all P<0.05) was “significantly better performance”. Also, the “rotarod outcome versus vehicle group” value in experiment [2] (50 mg/kg ip 10 min after CCI, only at days 14 and 28, P<0.05) was “significantly improved”.
